Measurements as given in patent publication US11998632B2, “Oral cannabinoid compositions and methods for treating neuropathic pain” (Avicanna Inc., priority 2019, dated 2024).

Experiment: Assessment of stability: cannabinoid concentrations by HPLC on stored capsules
Conditions: 40-day incubation at 40° C., dark conditions

Structure (SMILES)	stability of cannabinoid in the formulations (HPLC)
C=C(C)[C@@H]1CCC(C)=C[C@H]1c1c(O)cc(CCCCC)cc1O [CBD, cannabidiol]	remains stable
CCCCCc1cc(O)c2c(c1)OC(C)(C)[C@@H]1CCC(C)=C[C@@H]21 [THC, Tetrahydrocannabinol]	degrades significantly
